Assay results taken from patent US11865158B2, “Process and composition matter of nanoparticle formulation for systemic treatment of sepsis” (PURDUE RESEARCH FOUNDATION, priority 2019, dated 2024).

Legend:
[1] = test system: Escherichia coli ATCC 2452; experiment: Minimum inhibitory concentration, broth microdilution; assay type: cell-based
Description: (§1) Bacterial cell lines and reagents. Escherichia coli ATCC 2452 (NDM-1, isolated in Pakistan) was New Delhi metallo-beta-lactamase (NDM-1) positive, blaNDM positive by PCR, and carbepenem-resistant (Imipenem and Ertapenem). Escherichia coli ATCC 2469 (1001728, isolated from human urine) was New Delhi metallo-beta-lactamase (NDM-1) positive, blaKPC negative and blaNDM positive by PCR, and Carbepenem-resistant (Imipenem and Ertapenem). Klebsiella pneumoniae (NR-41920, isolated in 2008 from human blood culture in Boston, Massachusetts, USA) was Carbapenem-resistant strain, blaKPC-3 positive by PCR, and resistant to amikacin, ampicillin/sulbactam, cefazolin, cefepime, ceftazidime, ceftriaxone, cefuroxime, ciprofloxacin, gentamicin, meropenem, piperacillin/tazobactam, tobramicin and trimethoprim/sulfamethoxazole. Pseudomonas aeruginosa (NR-50573, isolated in early 1970s from the blood of a burn patient at Mercy Hospital in Pittsburgh, Pennsylvania, USA) was resistant to rifampicin and susceptible to meropenem, ofloxacin, ceftazidime, amikacin, and tobramycin. 0.5 McFarland standard was purchased from ThermoFisher scientific (Waltham, MA, USA). Mueller-Hinton broth and tryptone soy agar plates were purchased from Becton, Dickinson and company (Franklin Lakes, New Jersey, USA).
(§2) Antimicrobial activities The minimum inhibitory concentrations (MICs) of the control antibiotics (gentamicin and imipenem), PMB, D-TZP and TZP against Escherichia coli, Klebsiella pneumoniae and Pseudomonas aeruginosa strains were determined by the broth microdilution method, according to guidelines outlined by the Clinical and Laboratory Standards Institute (CLSI)^18. The bacterial stains were grown aerobically overnight on tryptone soy agar plates at 37° C. Afterwards, a bacterial solution equivalent to 0.5 McFarland standard was prepared and diluted in cation-adjusted Mueller-Hinton broth (CAMHB) to achieve a bacterial concentration of ˜5×10^5 CFU/mL. The treatments were added in the first row of the 96-well plates and serially diluted with media containing bacteria. Plates were incubated aerobically at 37° C. for 16-18 hours.

[2] = test system: Escherichia coli ATCC 2469; experiment: as above; assay type: cell-based
Description: as §1, §2

[3] = test system: Klebsiella pneumoniae NR-41920; experiment: as above; assay type: cell-based
Description: as §1, §2

[4] = test system: Pseudomonas aeruginosa NR-50573; experiment: as above; assay type: cell-based
Description: as §1, §2

[5] = test system: LPS-induced NF-kB/AP-1 activation in THP1-XBlue-MD2-CD14 cells; experiment: In vitro anti-LPS activity, SEAP reporter assay, LPS added simultaneously with treatment; assay type: cell-based, human; settings: 10 ng/mL LPS, free PMB at 150 μg/mL
Protocol: To investigate if D-TZP can neutralize LPS, a reporter cell line responding to LPS was incubated with LPS and free PMB or D-TZP's (with different amounts of PMB). THP1-XBlue-MD2-CD14, derived from the human monocytic THP-1 cell line, overexpresses MD2 and CD14 to amplify the response to TLR4 agonist LPS. Color change of the Quanti-Blue reagent (NF-kB/AP-1-inducible secreted embryonic alkaline phosphatase (SEAP) reporter protein) reflects NF-kB/AP-1 activation due to LPS. LPS-induced SEAP production was measured at 620 nm. The reporter cells with 10 ng/mL of LPS expressed a high level of SEAP as compared to non-challenged cells. […] A supernatant was obtained from each mixture to separate unbound LPS and added to THP1-XBlue-MD2-CD14 cells.
In vitro anti-LPS activity. Five microliters of LPS ([…]) was mixed with 15 μL of free PMB, D-TZP, or TZP at different concentrations in a flat-bottom 96-well plate. THP1-XBlue-MD2-CD14 cell suspension (10^5 cells in 180 μL) was then added to the mixtures. After 24 h incubation, cells were centrifugated at 233 rcf for 5 min. Twenty microliters of the cell medium was mixed with the Quanti-Blue reagent. After 2 h incubation, the color was measured at 620 nm by a Spectra Max M3 microplate reader (Molecular Devices, Sunnyvale, CA). […] The medium was analyzed in the same manner as above.

J774a.1 macrophages = experiment: Effect on cell membrane, confocal microscopy with wheat germ agglutinin; assay type: cell-based; settings: eq. to 150 μg/mL PMB, 12 h
Protocol: Effect of PMB and D-TZP on cell membrane. The effect of D-TZP on J774A.1 cell membrane was monitored by two methods (scanning electron microscopy and confocal microscopy). For scanning electron microscopy, J774A.1 macrophages were plated in a 6-well plate at a density of 3×10^5 cells per well with 3 mL of complete medium. After overnight incubation at 37° C. in a 5% CO2 atmosphere, the cells were treated with either free PMB or D-TZP at a concentration equivalent to 150 μg/mL PMB for 12 h. The cells were centrifuged at 233 relative centrifugal force (rcf) for 3 min. The medium was removed, and 2.5% glutaraldehyde solution was added for fixation overnight at 4° C. The cells were then rinsed three times with water (5 min each) and incubated in 2% Osmium tetroxide for 1 h. After rinsing another three times with water (5 min each), the cells were dehydrated with a series of ethanol gradients (50%, 75%, 95%) for 10 minutes at each step. The dehydrated cells were rinsed with 100% ethanol three times for 10 minutes each time, stored in a 1:1 mixture of HMDS and ethanol in 1:1 for 30 min, and rinsed with 100% HMDS for 30 min twice. After overnight drying, the cells were placed on a carbon tape attached to an aluminum stud and coated with platinum for SEM analysis. The morphology of treated J774a.1 cells then was observed by a FEI NOVA NanoSEM scanning electron microscope (SEM). […]

polymyxin B [PMB]
Minimum inhibitory concentration (MIC) [1]: 0.5 µg/mL | Minimum inhibitory concentration (MIC) [2]: 0.125 µg/mL | Minimum inhibitory concentration (MIC) [3]: 0.5 µg/mL | Minimum inhibitory concentration (MIC) [4]: 0.5 µg/mL | LPS-induced SEAP production [5]: reduced the SEAP production | cell membrane staining with wheat germ agglutinin (J774a.1 macrophages): significant membrane damage
